Experimental findings from US20230201217A1 (priority 2019, published 2023) are described below.

In one series the test system is CD-1 mice. In words: 14-day oral gavage GLP toxicity study in CD-1 mice. It counts as in vivo, mouse. The protocol: All test article-treated animals underwent up-titration of dosage levels prior to reaching the maximum daily dose, which was administered for 14 consecutive days. […] The dose volume was 10 mL/kg for all groups. Groups 1 and 4 each consisted of 25 animals/sex and Groups 2-3 each consisted of 20 animals for each sex. Following 14 days of dose administration, 15 mice/sex/toxicology group were euthanized; the remaining 5, (10 for the control and high dose group) mice/sex/toxicology group were euthanized following a 14-day nondosing (recovery) period. Following the final blood collection (study day 13), all toxicokinetic animals (from a satellite group of 18 animals/sex/dose level) were euthanized.
For toxicology assessment, all animals were observed twice daily for mortality and moribundity. Clinical observations were recorded daily, and detailed physical examinations were conducted weekly. Body weights and food consumption were recorded twice weekly. Body temperature was recorded prior to dosing and following dosing at the time that post-dosing clinical observations were conducted. Functional observational battery (FOB) data were recorded for all animals near the start of the treatment period, near the end of the treatment period, and near the end of the recovery period. Ophthalmic examinations were performed during pretest and near the end of the dosing period. At the primary necropsy 10 animals/sex/group and at the recovery necropsy 5 animals/sex/group, were selected for complete necropsies, clinical pathology assessment (hematology and serum chemistry), organ weight collection, and microscopic examination of a full list of tissues. At each termination interval, 5 animals/sex/group were assigned for neuropathology assessments that involved perfusion fixation, comprehensive sectioning of the brain and collection of selected peripheral nerves, and the employment of special stains used to detect subtle neuronal injury.

A further series concerns mice. The series is described as follows: Single-dose oral toxicity. It counts as in vivo, mouse. The protocol: Single doses up to 300-400 mg/kg and 800 mg/kg appeared to be generally well tolerated in monkeys and rats, respectively (one monkey treated with 400 mg/kg died in the 2-week GLP study on Day 1 of dosing). […] In mice, mortality was consistently seen following single doses 150 mg/kg. Preliminary 5-day repeat-dose range-finding studies were conducted in mice, rats and monkeys. The definitive 14-day studies in mouse and monkey yielded generally similar results to those observed in the 5-day studies.

Regarding `COCCC1CC2CN3CCc4c([nH]c5ccccc45)C(C(=O)OC)(C2)C13.Cl` (stereo not shown) [18-MC HCl, 18-Methoxycoronaridine hydrochloride], the mortality result in the series with CD-1 mice (100 mg/kg/day group, Days −1 and 12) was “two male mice in the 100 mg/kg/day group were found dead”. Moreover, the “HED of well tolerated dose” value in the series on CD-1 mice (female mice, 100 mg/kg/day) is on record as 8 mg/kg/day; in the series on CD-1 mice (male mice, 50 mg/kg/day) it was 4 mg/kg/day. Further, the values for the NOAEL in the series on CD-1 mice (females) and with CD-1 mice (males) were 100 mg/kg/day and 50 mg/kg/day, respectively. The “neurobehavioral findings, Functional Observational Battery” value with CD-1 mice (up to 100 mg/kg/day, except non-adverse decreased body temperature) is “no noted neurobehavioral findings”. In addition, the “single doses with mortality consistently seen” value in the series with mice worked out at 150 mg/kg.
